Laboratory results taken from article PMC5605198, “MELK is not necessary for the proliferation of basal-like breast cancer cells” (eLife, 2017).
Read-outs that look alike come from different tables or passages of the source. One block for each compound: values may come before it.

How the values were obtained:
HCC70 = assay: Cell proliferation assay (CellTiter-Glo); conditions: Homo sapiens
T-47D = assay: Cell proliferation assay (CellTiter-Glo); conditions: Homo sapiens, T47D
BT-549 = assay: Cell proliferation assay (CellTiter-Glo); conditions: Homo sapiens
MCF7 = assay: Cell proliferation assay (CellTiter-Glo); conditions: Homo sapiens
ZR-75-1 = assay: Cell proliferation assay (CellTiter-Glo); conditions: Homo sapiens, ZR-75-1, 72 h, read-out: 3-day antiproliferative IC50
[1] = tested on: MDA-MB-468 (second source); assay: Cell proliferation assay (CellTiter-Glo); conditions: Homo sapiens, MDA-MB-468, 168 h, read-out: 7-day antiproliferative IC50
MDA-MB-468 = assay: Cell proliferation assay (CellTiter-Glo); conditions: Homo sapiens
MELK [2] = molecular target: T1, MELK (Homo sapiens, UniProt Q14680); assay: Z’-LYTE enzymatic assay; type: biochemical
T1 sequence (Q14680 whole entry): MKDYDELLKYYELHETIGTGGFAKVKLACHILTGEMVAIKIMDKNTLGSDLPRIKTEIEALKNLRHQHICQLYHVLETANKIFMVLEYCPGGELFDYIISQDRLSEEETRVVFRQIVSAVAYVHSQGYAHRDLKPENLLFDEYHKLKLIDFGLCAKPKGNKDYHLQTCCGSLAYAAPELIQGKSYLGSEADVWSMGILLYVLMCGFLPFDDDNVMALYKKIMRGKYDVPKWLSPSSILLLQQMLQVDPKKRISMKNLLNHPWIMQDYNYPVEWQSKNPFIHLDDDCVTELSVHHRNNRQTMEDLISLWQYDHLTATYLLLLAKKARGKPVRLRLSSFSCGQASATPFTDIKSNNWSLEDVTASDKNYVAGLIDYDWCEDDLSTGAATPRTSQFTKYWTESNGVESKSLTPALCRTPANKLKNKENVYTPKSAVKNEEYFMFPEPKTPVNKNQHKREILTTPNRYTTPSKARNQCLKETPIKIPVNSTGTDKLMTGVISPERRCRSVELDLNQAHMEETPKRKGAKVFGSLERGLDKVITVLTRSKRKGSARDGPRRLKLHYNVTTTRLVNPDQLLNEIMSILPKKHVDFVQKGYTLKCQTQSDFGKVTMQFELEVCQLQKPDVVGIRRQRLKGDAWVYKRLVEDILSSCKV

FKBP12^F36V-MELK(sg3R) = assay: dTAG-induced degradation, immunoblot; type: cell-based; conditions: MELK−/− MDA-MB-468-FKBP12^F36V-MELK(sg3R) cells; for duration of sustained degradation of FKBP12^F36V-MELK(sg3R): 500 nM
Method: (§1) Four dTAG molecules (7, 13, 36 and 47) that vary in linker length and chemical structure were tested for their efficiency at depleting FKBP12^F36V-MELK(sg3R) (Figure 4A, Figure 4—figure supplement 3).
Figure 4. […] (A) Chemical structure of heterobifunctional dTAG molecule dTAG-47. See also Figure 4—figure supplement 3 for the chemical structures of dTAG-7, dTAG-13 and dTAG-36. (B) Immunoblots for MELK and GAPDH after treatment of dTAG-7, 13, 36, and 47 at indicated concentrations in MELK−/− MDA-MB-468-FKBP12^F36V-MELK(sg3R) cells for 4 hours. See Figure 4—figure supplement 1 for details of the generation of MELK−/− MDA-MB-468-FKBP12^F36V-MELK(sg3R) clones. (C) Same as in 4B, but with treatment at 500 nM and extended treatment times for 14, 24, 48, and 72 hours. (D) Changes in abundance of 7270 proteins (peptide count ≥2) comparing MELK−/− MDA-MB-468-FKBP12^F36V-MELK cells treated with dTAG-7 (250 nM) or DMSO for 1 hour, versus p-value (dTAG-7: triplicate, DMSO: duplicate, limma moderated t-test). See also Figure 4—source datas 1 and 2 for the original and the processed data. (E) Crystal violet staining image showing parental MDA-MB-468 cells and MELK−/− MDA-MB-468-FKBP12^F36V-MELK(sg3R) cells after treatment with DMSO or 500 nM of dTAG-47 for 9 days. Immunoblots showing MELK and GAPDH from a duplicate plate on Day 9 confirmed sustained depletion of FKBP12^F36V-MELK(sg3R). These are representative data from one of two independent experiments. Figure 4—source data 1. Raw integrated ion intensities from quantitative multiplexed proteomics. Figure 4—source data 2. Processed Data and Statistical Analysis by limma (topTable). Figure 4—figure supplement 1. Single clones selected from MDA-MB-468-FKBP12^F36V-MELK(sg3R) cells subject to CRISPR/Cas9-mediated knockout of endogenous MELK. Immunoblots for MELK and GAPDH in single cell clones selected from MDA-MB-468-FKBP12^F36V-MELK(sg3R) transfected with Cas9/sgMELK-3 to knockout endogenous MELK. Clone 1D4 is clone 1 and clone 1A3 is clone 2 in Figure 4. Clone 1D4 was confirmed with heterozygous −1 and +1 indels; clone 1A3 was confirmed with homozygous −1 deletions. [drawing 5] Figure 4—figure supplement 2. […] (A) Immunoblots for MELK, cyclin B1 and GAPDH in asynchronous versus M-phase arrested MDA-MB-468 cells and MDA-MB-468-FKBP12^F36V-MELK(sg3R) cells (clone 1). […] Chemical structures of dTAG molecules. FKBP12^F36V-binding ligands conjugated by variable linkers to thalidomide or pomalidomide, including (A) dTAG-7, (B) dTAG-13 and (C) dTAG-36 are capable of inducing degradation of FKBP12^F36V-tagged proteins of interest. [drawing 7]

MELK [3] = molecular target: T1, MELK; assay: Inhibitor-induced MELK degradation, immunoblot; conditions: MDA-MB-468 cells; pretreatment carfilzomib (400 nM) or MLN4924 (1 μM) 4 hours, then MELK inhibitor 4 hours
Flt3 = tested on: Flt3; parameters: method as in Johnson et al., 2015; conditions: ref Johnson et al., 2015; cited from earlier work
[4] = tested on: MELK−/− MDA-MB-468-FKBP12^F36V-MELK(sg3R) cells; assay: 9-day proliferation assay, crystal violet staining; type: cell-based; conditions: 500 nM, 9 days, two clones
Method: as §1
Figure 4. […] (A) Chemical structure of heterobifunctional dTAG molecule dTAG-47. See also Figure 4—figure supplement 3 for the chemical structures of dTAG-7, dTAG-13 and dTAG-36. (B) Immunoblots for MELK and GAPDH after treatment of dTAG-7, 13, 36, and 47 at indicated concentrations in MELK−/− MDA-MB-468-FKBP12^F36V-MELK(sg3R) cells for 4 hours. See Figure 4—figure supplement 1 for details of the generation of MELK−/− MDA-MB-468-FKBP12^F36V-MELK(sg3R) clones. (C) Same as in 4B, but with treatment at 500 nM and extended treatment times for 14, 24, 48, and 72 hours. (D) Changes in abundance of 7270 proteins (peptide count ≥2) comparing MELK−/− MDA-MB-468-FKBP12^F36V-MELK cells treated with dTAG-7 (250 nM) or DMSO for 1 hour, versus p-value (dTAG-7: triplicate, DMSO: duplicate, limma moderated t-test). See also Figure 4—source datas 1 and 2 for the original and the processed data. (E) Crystal violet staining image showing parental MDA-MB-468 cells and MELK−/− MDA-MB-468-FKBP12^F36V-MELK(sg3R) cells after treatment with DMSO or 500 nM of dTAG-47 for 9 days. […] Raw integrated ion intensities from quantitative multiplexed proteomics. […]

GSK3A = GSK3A (Homo sapiens, UniProt P49840); assay: Z’-LYTE enzymatic assay; conditions: Z’-LYTE assay at [ATP]=apparent Km; read-out: Biochemical IC50 GSK3A
Sequence of GSK3A (P49840 whole entry): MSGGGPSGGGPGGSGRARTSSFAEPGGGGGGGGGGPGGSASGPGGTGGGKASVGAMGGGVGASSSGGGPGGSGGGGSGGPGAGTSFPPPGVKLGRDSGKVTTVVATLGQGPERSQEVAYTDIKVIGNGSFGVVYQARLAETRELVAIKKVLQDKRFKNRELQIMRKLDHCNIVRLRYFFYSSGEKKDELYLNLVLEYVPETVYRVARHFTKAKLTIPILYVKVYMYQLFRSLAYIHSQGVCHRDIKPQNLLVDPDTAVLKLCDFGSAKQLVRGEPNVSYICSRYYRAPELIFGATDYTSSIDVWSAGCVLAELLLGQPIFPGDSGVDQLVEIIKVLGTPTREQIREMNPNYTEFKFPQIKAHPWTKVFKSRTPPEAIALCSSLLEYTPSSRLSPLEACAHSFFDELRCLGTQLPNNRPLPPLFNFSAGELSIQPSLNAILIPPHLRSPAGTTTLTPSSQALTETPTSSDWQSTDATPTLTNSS

MELK [5] = molecular target: T1, MELK; assay: KINOMEscan MELK pull-down; type: binding
Method: Based on biochemical (KINOMEscan) and cellular (KiNativ) kinase profiling of our in-house library of structurally diverse ATP-competitive kinase inhibitors, we identified several chemotypes that were prioritized for further characterization and development. In particular, we focused on JW-7-25-1 (Figure 1A), a benzonaphthyridinone derivative that inhibited MELK pull-down by 100% (KINOMEscan) at 10 μM.

mTOR = mTOR (Homo sapiens, UniProt P42345); assay: Z’-LYTE enzymatic assay; conditions: Z’-LYTE assay at [ATP]=apparent Km; read-out: Biochemical IC50 mTOR
CDK7 = CDK7 (Homo sapiens, UniProt P50613); assay: Adapta kinase assay; conditions: Adapta assay at [ATP]=apparent Km; read-out: Biochemical IC50 CDK7
Sequence of CDK7 (P50613 whole entry): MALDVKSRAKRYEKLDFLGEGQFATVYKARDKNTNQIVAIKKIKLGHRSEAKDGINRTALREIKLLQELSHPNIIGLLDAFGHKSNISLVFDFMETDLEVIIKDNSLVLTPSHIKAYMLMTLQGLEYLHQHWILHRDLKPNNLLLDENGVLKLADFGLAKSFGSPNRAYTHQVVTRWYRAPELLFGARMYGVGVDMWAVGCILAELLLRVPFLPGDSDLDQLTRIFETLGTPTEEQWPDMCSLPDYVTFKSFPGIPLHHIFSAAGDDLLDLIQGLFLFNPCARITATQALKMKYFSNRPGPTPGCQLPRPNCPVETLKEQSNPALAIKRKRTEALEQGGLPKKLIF
Sequence of CDK7 (P51946 whole entry partner): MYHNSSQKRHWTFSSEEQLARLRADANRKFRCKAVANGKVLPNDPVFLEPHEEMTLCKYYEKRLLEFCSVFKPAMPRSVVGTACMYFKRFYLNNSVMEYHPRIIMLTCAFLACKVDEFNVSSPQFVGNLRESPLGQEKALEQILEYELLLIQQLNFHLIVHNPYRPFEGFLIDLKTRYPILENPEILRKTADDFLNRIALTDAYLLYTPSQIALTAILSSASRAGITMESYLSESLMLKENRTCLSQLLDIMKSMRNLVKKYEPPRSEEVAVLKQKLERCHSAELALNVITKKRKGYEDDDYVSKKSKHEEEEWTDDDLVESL
Sequence of CDK7 (P51948 whole entry partner): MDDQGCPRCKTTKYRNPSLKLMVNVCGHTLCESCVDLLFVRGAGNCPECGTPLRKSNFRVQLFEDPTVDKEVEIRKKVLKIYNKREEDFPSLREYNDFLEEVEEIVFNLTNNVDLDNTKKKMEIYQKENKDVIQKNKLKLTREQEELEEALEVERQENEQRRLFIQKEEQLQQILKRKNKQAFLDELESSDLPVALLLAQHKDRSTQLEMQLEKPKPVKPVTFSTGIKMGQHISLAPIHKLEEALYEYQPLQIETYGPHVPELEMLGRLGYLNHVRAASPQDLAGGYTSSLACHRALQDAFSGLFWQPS

[6] = HCC70, 72 h, read-out: 3-day antiproliferative IC50
[7] = HCC70, 168 h, read-out: 7-day antiproliferative IC50
[8] = 72 h, read-out: 3-day antiproliferative IC50
[9] = 168 h, read-out: 7-day antiproliferative IC50
[10] = BT-549, 72 h, read-out: 3-day antiproliferative IC50
[11] = BT-549, 168 h, read-out: 7-day antiproliferative IC50
[12] = MCF7, 72 h, read-out: 3-day antiproliferative IC50
[13] = MDA-MB-468, 72 h, read-out: 3-day antiproliferative IC50
[14] = MDA-MB-468, 168 h, read-out: 7-day antiproliferative IC50

- IC50 (T-47D; [8]): > 10 µM
- IC50 (T-47D; [9]): 4.9 µM
- IC50 (BT-549; [10]): 8.05 µM
- IC50 (BT-549; [11]): 4.98 µM
- IC50 (MCF7; [12]): 6.06 µM
- IC50 (MCF7; MCF7, 168 h, read-out: 7-day antiproliferative IC50): 2.81 µM
- IC50 [1]: 8.4 µM
- IC50 (MDA-MB-468; [13]): 5.41 µM
- IC50 (MDA-MB-468; [14]): 2.96 µM
- IC50 (MELK [2]; Biochemical IC50 MELK, Z’-LYTE assay at [ATP]=apparent Km): 0.0119 µM
- IC50 (MELK [2]; Note: MELK IC50, note column of Table 3): 0.0119 µM
- IC50 (MELK [2]; Potency (MELK), measured by Z’LYTE biochemical assay, class symbols in Figure 2C): < 0.02 µM
SMILES: CN1CCN(c2ccc(-n3cc(-c4ccncc4OCC4CCNCC4)cn3)cc2)CC1 [NVS-MELK8a]
- IC50 (HCC70; [6]): 5.99 µM
- IC50 (HCC70; [7]): 4.17 µM
- IC50 (ZR-75-1): > 10 µM

- IC50 (T-47D; [8]): 5.89 µM
- IC50 (T-47D; [9]): 0.62 µM
- IC50 (BT-549; [10]): 0.4 µM
- IC50 (BT-549; [11]): 0.31 µM
- IC50 (MCF7; [12]): 0.44 µM
- IC50 [1]: 0.91 µM
- IC50 (MDA-MB-468; [13]): 0.58 µM
- IC50 (MDA-MB-468; [14]): 0.16 µM
SMILES: CC1(C)C(=O)N([C@H]2CCc3c(O)cccc32)c2nc(Nc3cccc(CN4CCCC4)c3)ncc21 [MRT199665]
- IC50 (HCC70; [6]): 0.39 µM
- IC50 (HCC70; [7]): 0.075 µM
- IC50 (ZR-75-1): 4.83 µM

SMILES: CCC(C(=O)N1CCCCC1C(=O)OC(CCc1ccc(OC)c(OC)c1)c1ccccc1OCC(=O)NCCCCCCOc1cccc2c1C(=O)N(C1CCC(=O)NC1=O)C2=O)c1cc(OC)c(OC)c(OC)c1 (stereo not shown) [dTAG-13]
- duration of sustained degradation of FKBP12^F36V-MELK(sg3R) (FKBP12^F36V-MELK(sg3R)): up to 72 hours
- time to efficient depletion of FKBP12^F36V-MELK(sg3R) (FKBP12^F36V-MELK(sg3R)): ≤ 4 h

SMILES: CC[C@H](C(=O)N1CCCC[C@H]1C(=O)O[C@H](CCc1ccc(OC)c(OC)c1)c1ccccc1OCC(=O)NCCCCCCCCNc1cccc2c1C(=O)N(C1CCC(=O)NC1=O)C2=O)c1cc(OC)c(OC)c(OC)c1 (stereo partly drawn) [dTAG-36, (2S)-(1R)−3-(3,4-dimethoxyphenyl)−1-(2-(2-((8-((2-(2,6-dioxopiperidin-3-yl)−1,3-dioxoisoindolin-4-yl)amino)octyl)amino)−2-oxoethoxy)phenyl)propyl 1-((S)−2-(3,4,5-trimethoxyphenyl)butanoyl)piperidine-2-carboxylate]
- duration of sustained degradation of FKBP12^F36V-MELK(sg3R) (FKBP12^F36V-MELK(sg3R)): up to 72 hours
- time to efficient depletion of FKBP12^F36V-MELK(sg3R) (FKBP12^F36V-MELK(sg3R)): ≤ 4 h

- rescue of inhibitor-induced MELK degradation by pretreatment (MELK [3]): prevented degradation
SMILES: CC(C)C[C@H](NC(=O)[C@H](CCc1ccccc1)NC(=O)CN1CCOCC1)C(=O)N[C@@H](Cc1ccccc1)C(=O)N[C@@H](CC(C)C)C(=O)[C@@]1(C)CO1 [carfilzomib]

- IC50 (MDA-MB-468; [13]): > 10 µM
SMILES: COc1cc(-c2cn[nH]c2)ccc1C(=O)Nc1ccc2c(c1)CCNCC2 [MELK-T1]
- IC50 (Flt3): 0.018 µM
- IC50 (ZR-75-1): > 10 µM

SMILES: CC[C@H](C(=O)N1CCCC[C@H]1C(=O)O[C@H](CCc1ccc(OC)c(OC)c1)c1ccccc1OCC(=O)NCCCCCCCCNc1ccc2c(c1)C(=O)N(C1CCC(=O)NC1=O)C2=O)c1cc(OC)c(OC)c(OC)c1 (stereo partly drawn) [dTAG-47, (2S)-(1R)−3-(3,4-dimethoxyphenyl)−1-(2-(2-((8-((2-(2,6-dioxopiperidin-3-yl)−1,3-dioxoisoindolin-5-yl)amino)octyl)amino)−2-oxoethoxy)phenyl)propyl 1-((S)−2-(3,4,5-trimethoxyphenyl)butanoyl)piperidine-2-carboxylate]
- growth in 9-day proliferation assay [4]: neither of the FKBP12^F36V-MELK(sg3R) MELK−/− clones exhibited growth impairment
- duration of sustained degradation of FKBP12^F36V-MELK(sg3R) (FKBP12^F36V-MELK(sg3R)): up to 72 hours
- time to efficient depletion of FKBP12^F36V-MELK(sg3R) (FKBP12^F36V-MELK(sg3R)): ≤ 4 h

- rescue of inhibitor-induced MELK degradation by pretreatment (MELK [3]): minimal effect
SMILES: NS(=O)(=O)OC[C@@H]1C[C@@H](n2ccc3c(N[C@H]4CCc5ccccc54)ncnc32)C[C@@H]1O [MLN4924]

- IC50 (GSK3A): 0.0123 µM
- inhibition at 10 µM (MELK [5]): 100%
- IC50 (mTOR): 0.0055 µM
- IC50 (MELK [2]; Z’-LYTE assay at [ATP]=apparent Km, read-out: Biochemical IC50 MELK): 0.005 µM
- IC50 (CDK7): 0.0634 µM
SMILES: O=c1ccc2cnc3ccc(-c4ccc(O)cc4)cc3c2n1-c1ccc(N2CCNCC2)c(C(F)(F)F)c1 [JW-7-25-1]
